Data as given in publication PMC10215749, “Determination of the affinity constants for phage display albumin-binding peptides” (PeerJ, 2023).

Columns and labels:
HSA [1] = target: T1, HSA (Homo sapiens, UniProt P02768); test: Relative dissociation constant of peptide-fused phage by double-reciprocal plot of phage titers
Method: A single E. coli ER2738 colony was inoculated into 10 mL LB-Tet medium and incubated at 37 °C by shaking until mid-log phase (OD600∼0.5) for phage titering. Phage solutions were diluted 10-fold serially in TBS (50 mM Tris–HCl, pH 7.5, 150 mM NaCl) and aliquots of these solutions (50 µL) were added to a suspension of the prepared ER2738 cells (450 µL), 1 for each phage dilution. The phage-infected ER2738 cells (100 µL) were then poured from each dilution tube to an LB-Tet-IPTG-X-gal plate and the plates were incubated overnight at 37 °C. We determined the number of phage particles contained in the original stock phage culture by counting the number of plaques formed on the seeded agar plate and multiplying this by the dilution factor.
The concentration of bound phage [ ϕT] and free phage [ ϕ] can be calculated from the mass conservation equation, where [ ϕ] T is the total concentration of input phage and the concentration of target bound phage [ ϕT] can be estimated by eluted phage concentration [ ϕ] e, which is very much less than [ ϕ] T in our experiment. (6) ϕ=ϕt−ϕe≈ϕt (7) ϕT≈ϕe.
A double reciprocal plot of phage-target affinity measurement is generated by plotting 1/[ ϕ] e as a function of 1/[ ϕ] t. The slope is Kd/[T], the intercept on the vertical axis is 1/[T], and the intercept on the horizontal axis is −1/ Kd. […] (8) 1/ϕe=Kd/Tϕt+1/T.
Then TBST buffer wash the unbound phages, followed by the elution of the bound phages to the well with glycine-HCl, pH2.2. The concentration of input and eluted phage was quantitated by titration. […] These phage-fused peptides were subjected to DNA sequencing and their corresponding heptapeptide sequences are also shown in Table 3.

HSA [2] = target: T1, HSA; test: Phage clone binding to HSA, specificity ratio by phage titer; set-up: purchased Sigma; details: for Blank control phage titre: single clone eluted from blank control well; for Blank control phage titre / Elute phage titre (HSA-coated well): input 1.16 × 10^12 (HSA-3), 1.34 × 10^13 (HSA-4) pfu/ml; for Elute phage titre (HSA-coated well): single clone
Method: After rapid washing three times with TBST (TBS + 0.1% [v/v] Tween-20), 100 µL of the diluted phage library (∼2 × 10^11 phage) was added to the well of the coated plate and rocked gently to let them absorb for 60 min. Following 10 washes with TBST, the bound phages were eluted with 0.2 M Gly-HCl, pH 2.2. The 100 µL that was eluted was neutralized with 15 µL Tris–HCl (1 M, pH 9.1) immediately. A small amount of eluted phage was titered as described above and the rest of elutes were added to 20 ml ER2738 culture (OD 600∼0.5) to be amplified 4.5 h at 37 °C for the next round.
To evaluate the efficiency of the phage display panning procedure, we created two selection criteria: the recovery yield and the specificity ratio. The recovery yield is the ratio of the titer of the eluted phage to the input phage. The specificity ratio is the ratio of the titer of the eluted phage from the target coated well to the blank control well. Recovery Y ield%=Elutephagetiterfromtarget/Inputphagetiter×100 Specificity Ratio=Elutephagetiterfromtarget/Elutephagetiterfromblank.
The amplified culture of phage clones was transferred to a 50 mL centrifuge tube and centrifuged for 10 min at 10,000 rpm at 4 °C with a high-speed refrigerated centrifuge (Himac CR21G). The supernatant was decanted to a fresh tube and precipitated by 1/5 volume of PEG/-NaCl (20% [w/v] Polyethylene Glycol–8000, 2.5 M NaCl) at 4 °C overnight and centrifuged for 20 min at 10,000 rpm. The supernatant was discarded and the sediment containing phage was suspended with TBS. To precipitate the phage again, a 1/5 volume of PEG/NaCl was added to the culture and it was stored at 4 °C for at least 60 min. The PEG suspension was centrifuged for 10 min at 10,000 rpm, the phage precipitate was suspended in 500 µL of TBS.
The sequences of HSA-binding peptides were determined by DNA sequencing of the selected phage using −96 gIII sequencing primer 5′-[…]-3′ in the Ph.D-7 phage library.
The specificity ratio was used to determine if positive phage clones with high HSA-binding affinity were isolated. […] We tested the selected clones with significant specificity ratios as potential HSA-binders, after screening many phage clones that consisted of microplate-surface-binding phages, the specific and non-specific target-binding phages, from the target-binding plate as shown in Table 3. The two selected clones, HSA-3 and HSA-4, show specificity ratios of 7.4 and 9.8, respectively, confirming that our method in the panning process is effective.

Human serum albumin [3] = target: T2, Human serum albumin (human, UniProt P02768 25-609); test: phage binding to coated microplate, read by phage titer (specificity ratio); HSA coated in microplate wells, no blocking protein; purified phage clone added, washed with TBST, eluted with Gly-HCl pH 2.2 and titered; ratio of the eluted titer from the HSA well to that from a blank well; details: both partners purified
T2 construct: human serum albumin (HSA), bought from Sigma, coated on microplate wells; also called HSA; HSA target; source: bought: Sigma

Human serum albumin [4] = target: T2, Human serum albumin; test: phage binding to coated microplate, read by phage titer (double reciprocal plot); constant HSA coated in microtiter wells, varying input phage until equilibrium, TBST wash, elution with glycine-HCl pH 2.2, input and eluted phage titered; relative dissociation constant = slope/intercept of 1/eluted against 1/input; details: both partners purified

AESQKLN [HSA-3]
Elute phage titer Φe (HSA [1]; HSA-3, sample 1, input 1.13×10^14 pfu/L): 7.94×10^6 pfu/L
Elute phage titer Φe (HSA [1]; HSA-3, sample 2, input 5.8×10^13 pfu/L): 7.5×10^6 pfu/L
Elute phage concentration [Φ]e (HSA [1]; HSA-3, sample 2, input concentration printed 1.03×10^7 mol/L): 7.98e-13 mol/L
Elute phage titer Φe (HSA [1]; HSA-3, sample 3, input 3.36×10^13 pfu/L): 5.68×10^6 pfu/L
Elute phage concentration [Φ]e (HSA [1]; HSA-3, sample 3, input concentration printed 1.79×10^7 mol/L): 1.06e-14 mol/L
Elute phage concentration [Φ]e (HSA [1]; HSA-3, sample 4): 2.39e-14 mol/L
Elute phage titer Φe (HSA [1]; HSA-3, sample 4, input 2.16×10^13 pfu/L): 2.52×10^6 pfu/L
Elute phage titer Φe (HSA [1]; HSA-3, sample 5, input 1.52×10^13 pfu/L): 2×10^6 pfu/L
Elute phage concentration [Φ]e (HSA [1]; HSA-3, sample 5, input concentration printed 3.99×10^7 mol/L): 3.03e-14 mol/L
Blank control phage titre (HSA [2]): 1.24 × 10^5 pfu/ml
Elute phage titre (HSA-coated well) (HSA [2]): 9.16 × 10^5 pfu/ml

ITPLPLR [HSA-4]
Elute phage titer Φe (HSA [1]; HSA-4, sample 1, input 5.90×10^13 pfu/L): 5.0×10^6 pfu/L
Elute phage titer Φe (HSA [1]; HSA-4, sample 2, input 3.88×10^13 pfu/L): 4.32×10^6 pfu/L
Elute phage concentration [Φ]e (HSA [1]; HSA-4, sample 2, input concentration printed 1.55×10^7 mol/L): 1.4e-14 mol/L
Elute phage titer Φe (HSA [1]; HSA-4, sample 3, input 2.93×10^13 pfu/L): 2.87×10^6 pfu/L
Elute phage concentration [Φ]e (HSA [1]; HSA-4, sample 3, input concentration printed 2.05×10^7 mol/L): 2.1e-14 mol/L
Elute phage titer Φe (HSA [1]; HSA-4, sample 4, input 2.48×10^13 pfu/L): 2.8×10^6 pfu/L
Elute phage concentration [Φ]e (HSA [1]; HSA-4, sample 4, input concentration printed 2.44×10^7 mol/L): 2.2e-14 mol/L
Elute phage titer Φe (HSA [1]; HSA-4, sample 5, input 2.10×10^13 pfu/L): 2.16×10^6 pfu/L
Elute phage concentration [Φ]e (HSA [1]; HSA-4, sample 5, input concentration printed 2.86×10^7 mol/L): 2.8e-14 mol/L
Kd (HSA [1]; read-out: Relative dissociation constant, phage-fused peptide vs immobilized HSA, double-reciprocal plot 1/[Φ]e vs 1/[Φ]t, linear regression, elution glycine-HCl pH 2.2): 388 nM
Blank control phage titre (HSA [2]): 5.22 × 10^5 pfu/ml
Elute phage titre (HSA-coated well) (HSA [2]): 5.12 × 10^6 pfu/ml
Specificity ratio (HSA [2]; titer of eluted phage from target coated well / from blank control well): 9.8

B1: HSA-3 peptide fused phage (peptide)
peptide: AESQKLN
notes: DNA GCGGAGAGTTAGAAGCTTAAT (TAG printed as Q); Measured as the peptide on whole phage, not as a free peptide; source: M13 phage clone from the Ph.D.-7 library, amplified in E. coli ER2738, purified (PEG/NaCl precipitation)
specificity ratio (Human serum albumin [3]): 7.4
Kd (Human serum albumin [4]): 529 nM
